Tested on: internal ribosome entry site of the Hepatitis C virus, nucleotides 1-372 (HCV-IRES) RNA
Experiment: Hybridization of Cy3-labeled HCV-IRES RNA to DNA 5mer array
Assay type: binding
Conditions: address among the 40 most fluorescent in 3 out of 5 arrays; HCV-IRES RNA 92.7 nM, 4° C. overnight, scanned at 532 nm
Method: A short DNA 5mer array was made to order by Combimatrix® Mukilteo, Wash. The array contained 1,000 of the […] possible DNA 5mer oligomers, and provided a separate address for each oligomer.
The target nucleic acid sequence used was the RNA transcript of the internal ribosome entry site of the Hepatitis C virus, nucleotides 1-372 (HCV-IRES). The RNA was prepared using a Megascrip™ T7 kit, nuclease free water and 5-(3aminoallyl)-UTP, which were all provided by Ambion Inc. A DNA template encoding the HCV-IRES was constructed according to standard techniques and linearized. RNA synthesis reaction mixture contained the following:
The reaction mixture was incubated at 30° C. overnight and purified using Rneasy® kit from QIAGEN, Inc. Target Sequence was then labeled using a Cy3 monoreactive dye pack from Amersham Biosciences, Inc. Dried HCV-IRES RNA was added to 20 μL of sodium carbonate (0.1 M pH 8.5) followed by 20 μL Cy3 dye solution. The reaction mixture was mixed and incubated at room temperature for 1 hour in the dark and purified using RNeasy® mini-kit.
The array was incubated with RNase free water for 30 minutes at 37° C. then washed three times with wash buffer (300 mM NaCl, 100 mM MgCl2). Hybridization was effected by adding a solution of HCV-IRES RNA (92.7 nM in 300 mM NaCl, 100 mM MgCl2 and 100 mM Tris pH 7.4) into the hybridization chamber. The array was incubated at 4° C. overnight in the dark and rinsed three times with wash buffer.
If an address corresponding to the same oligomer was selected in 3 out of 5 arrays analyzed, that oligomer was scored as likely binding ligand for the HCV-IRES RNA.

| Sequence | likely binding candidates for HCV-IRES |
| --- | --- |
| GGCCC | likely binding candidates |
| GGGGG | likely binding candidates |
| GGTCC | likely binding candidates |
| GTCCC | likely binding candidates |
| TTCCC | likely binding candidates |
| TTCTC | likely binding candidates |
